# Laboratory results from patent US9040485B2, “Synthetic analogues of neural regeneration peptides” (Curonz Holdings Company Limited, priority 2007, dated 2015).
# “Also recorded” adds a separate entry of the source. Where a SMILES comes first, the peptide text is derived from it. [ ]: non-standard residue; d: D form. Aib = CC(C)(N)C(=O)O
# Tests used:
# cerebellar microexplants = test: Neuronal survival of cerebellar microexplants exposed to the neurotoxin 3-NP (cells having neurites counted); assay type: cell-based, Wistar rat; settings: for neuroprotection after exposure to 3-NP, larger set of data: study of 6 in each group, FIG. 4
# Method: (§1) Laminated cerebellar cortices of the two hemispheres were explanted from a P3, P4, P7 or P8 Wistar rat, cut into small pieces in GBSS with 0.65% D(+)glucose solution, and triturated by a 0.4 mm gauge needle and subsequently pressed through a 125 μm pore size sieve. The obtained microexplants were centrifuged (60×g) 2 times for a medium exchange into serum-free BSA-supplemented START V-medium (Biochrom). Finally, the microexplants were reconstituted in 500 μl STARTV-medium. For culturing, 38 μl of the cell suspension was incubated for 1 hour on a poly-D-lysine-coated cover slip in a 35 mm Petri dish under an atmosphere comprising 5% CO2 in air and 100% humidity at 34° C. Subsequently, the injuring toxins (as described below), NRP analogues and 1 ml of STARTV-medium were added, and the cultures were evaluated after 2-3 days of culture.
# (§2) General methods for toxicological and drug administration experiments were designed such that 1/100 parts of toxin and neuroprotective drug were administered simultaneously to the freshly prepared cerebellar microexplants. Glutamate was prepared as a 50 mM stock solution in MilliQ water while 50 mM 3-nitropropionic acid (3-NP) was pH-adjusted (pH 6.8-7.2) in MilliQ water. The concentrations of the oxidative stress inducing toxin, 3-nitropropionic acid (3-NP), and the excitotoxin, glutamate, in the assay were at concentrations of 0.5 mM each. Lyophilized NRP peptides were reconstituted in PBS or 100 μg/ml human transferrin as a 10 μM stock solution. Subsequently, serial dilutions were made. Cerebellar microexplants were cultivated for 48-72 hours at 34° C., 5% CO2 in air and 100% humidity before they were fixed by increasing amounts of paraformaldehyde (0.4%, 1.2%, 3% and 4%—each treatment 2-3 min).
# Using the toxins described above, cerebellar explants were exposed for 24 hours, at the beginning of culturing to dilutions of NRP (survival assay) or NRP and 0.1 μM BrdU (proliferation assay). Subsequently, 80% of the medium was changed without addition of new toxins and NRPs. The cerebellar cultures were fixed as described above after 3 days in vitro. The detection of the incorporated BrdU level is performed as described previously.
# For statistical analysis of survival, four fields (each field having an area of 0.65 mm^2) of each fixed cerebellar culture with the highest cell densities were chosen, and cells displaying neurite outgrowth were counted (survival assay).
# We exposed cell cultures to vehicle alone (open column) the neurotoxin 3-NP alone (shaded column) to 3-NP plus different concentrations of SEQ ID NO:5 (hatched columns) or to 3-NP plus different concentrations of a non-substituted NRP, SEQ ID NO:1 (dark shaded column). We then counted the numbers of cells having neurites as an indicator of neuronal cell survival.
# cerebellar explants = test: Storage stability: peptide stored 9 weeks at −20° C. or −4° C., then tested for neuroprotection against 3-NP in cerebellar explants; assay type: cell-based, Wistar rat; settings: for stability in storage (retention of neuroprotective activity): 9 weeks, −4° C. compared with −20° C.; for neuroprotective effect against 3-NP after storage at −4° C.: stored 9 weeks at −4° C.; for neuroprotective effect against 3-NP after storage at −4° C. / neuroprotective effect against 3-NP after storage at −20° C.: four concentrations 10^−13 M to 10^−10 M; for neuroprotective effect against 3-NP after storage at −20° C.: stored 9 weeks at −20° C.
# Method: as §1, §2
# To determine the stability of NRPs of this invention in storage, we carried out a series of studies using SEQ ID NO:1. In this study, we synthesized SEQ ID NO:1 and then stored the peptide at temperatures of either −20° C. or −4° C. for nine (9) weeks. We then tested the NRP for efficacy in protecting cerebellar neurons against the neurotoxic effect of 3-NP as described above. Cerebellar explants were treated with vehicle alone (open column), the neurotoxic agent 3-NP alone (light stippled column), or 3-NP plus four concentrations of SEQ ID NO:1 that had been stored for 9 weeks at −20° C., or at −4° C.
# In this study, we determined the stability of a substituted NRP, SEQ ID NO:5, in different storage conditions and at different concentrations as with Example 3 above. We synthesized SEQ ID NO:5 and then stored the peptide for 9 weeks at a temperature of either −20° C. or −4° C. We then tested the efficacy of SEQ ID NO:5 in decreasing the neurotoxic effect of 3-NP as described in Examples 2 and 3 above.
# [1] = tested on: rats with peripheral neuropathy induced by pyridoxine; test: Pyridoxine-induced peripheral neuropathy, precision beam walk motor deficit score; assay type: in vivo; settings: for motor deficits (beam walking score) versus vehicle: Experiment I: pyridoxine 800 mg/kg/day 8 days, four days after cessation of pyridoxine
# Method: Male Sprague-Dawley rats were used and were weighed 278-349 g at the commencement of intoxication with pyridoxine chloride. Before intoxication, rats were habituated to walk across a beam at daily intervals for a week.
# Experiment I: Rats were administered 400 mg/kg pyridoxine chloride dissolved in sterile distilled water adjusted to neutral pH intraperitoneally (i.p) twice daily for 8 days and concurrently the peptide having the sequence SEQ ID NO:5 was administered i.p. for at total of 10 days.
# Experiment II: Rats were administered a higher dose of pyridoxine (1200 mg/kg/day) over a shorter period of time. Pyridoxine chloride dissolved in sterile distilled water adjusted to neutral pH was administered i.p. to the rats at a dose of 600 mg/kg twice daily for 4 days. Concurrently the peptide having the sequence SEQ ID NO:5 was administered for 4 days. On day 5, rats were tested for motor deficits.
# Motor deficits after pyridoxine intoxication and effects of SEQ ID NO:5 were analyzed using a precision beam walk. Seven subsequent foot steps across the 1.5 m long beam were videotaped and according to the positioning of the foot tarsus, these steps were scored between 1 to 4 (1—hind leg tarsus above the beam median; 2—tarsus was touching the upper half of beam medium; 3-tarsus was touching the lower half of beam median and 4—tarsus below the beam median). The score results of all seven steps were added together. A score of 30 was given if the animal was only able to stand on the beam but was unable to walk. In the event of inability to stand on the beam a score of 32 was awarded.
# Experiment I: The two concentrations tested for SEQ ID NO:5 were 40 ng/kg/day and 4 μg/kg/day.
# Experiment II: Saline and SEQ ID NO:5 at a dose of 4 μg/kg/day were tested.
# Motor deficit data were assessed by two-way analysis of variance and Bonferroni post-hoc test. Statistical significance was concluded if p<0.05 between drug treatment cohorts and vehicle treatment.
# [2] = tested on: SOD-1 mutant (ALS) transgenic mice; test: Survival of SOD-1 mutant (ALS) transgenic mice, Kaplan-Meier; assay type: in vivo
# Excerpt: In this series of studies, we examined the effects of SEQ ID NO:5 on mice having a genetic defect (SOD-1) that produces a motor neuron disease similar to that in humans with ALS Animals with this disorder show a progressive loss of motor coordination over time, and ultimately die prematurely of the disease. This animal system is useful in studying effects of agents potentially useful in treating ALS in human beings. Thus, results obtained are highly predictive of results obtained in humans with ALS.
# Mice were randomly allocated to receive either vehicle or SEQ ID NO:5 from the point of disease onset onwards.
# SEQ ID NO:5 treatment (40 μg/kg, given 1/day, i.p. (FIG. 8A) or 0.4 μg/kg, given 1/day, i.p. (FIG. 8B)) was started at the day of onset of the disease.
# [3] = tested on: mouse model of experimental autoimmune encephalitis (EAE); test: MOG-induced experimental autoimmune encephalitis (EAE) model of multiple sclerosis, clinical score of neurological impairment; assay type: in vivo, mice, strain C57B1/6J; settings: 0.1 μg peptide/animal (4.16 μg/kg) i.p. daily for 14 days from day 17 after MOG-immunization; outcome 37 days after first treatment; p<0.01 versus treatment day 1 score; FIG. 5
compound,measurement,setting,value
"C[C@H](NC(=O)[C@H](CCCNC(=N)N)NC(=O)[C@H](CCCNC(=N)N)NC(=O)CN)C(=O)N[C@@H](C)C(=O)N1CCC[C@H]1C(=O)NCC(=O)N[C@@H](CCCNC(=N)N)C(=O)NC(C)(C)C(=O)NCC(=O)NCC(N)=O [SEQ ID NO:5, NH2-G^1RRAAPGR-Aib-GG^11-NH2] (H-GRRAAPGR[Aib]GG-NH2)",neuroprotection compared with the unsubstituted NRP,"cerebellar microexplants; 3-NP, FIGS. 1 and 4",more neuroprotective than the unsubstituted NRP
same,concentration of maximal effect on 3-NP-induced neurotoxicity,"cerebellar microexplants; FIG. 1, n=4",about 100 fM
same,threshold concentration for decrease of 3-NP-induced neurotoxicity,"cerebellar microexplants; FIG. 1, n=4",below 1 fM
same,decrease of 3-NP-induced neurotoxicity (cells having neurites),"cerebellar microexplants; different concentrations, 0.5 mM 3-NP, p<0.001, n=4 each, FIG. 1",decreased 3-NP-induced neurotoxicity in a concentration dependent fashion
same,"neuroprotection after exposure to 3-NP, larger set of data",cerebellar microexplants,protect neurons from dying
same,stability in storage (retention of neuroprotective activity),cerebellar explants,not statistically different; also recorded: stable under storage conditions
same,neuroprotective effect against 3-NP after storage at −4° C.,cerebellar explants,retained its neuroprotective effect
same,neuroprotective effect against 3-NP after storage at −20° C.,cerebellar explants,neuroprotective effects similar to those found for SEQ ID NO:1
same,motor deficits (beam walking score) versus control group,"[1]; Experiment I: peptide 4 μg/kg/day, day 16 after start of pyridoxine-intoxication, p<0.05, FIG. 6",significantly less motor deficits than the control group
same,motor deficits (beam walking score) versus vehicle,"[1]; peptide 40 ng/kg/day i.p. 10 days, p<0.05, FIG. 6",attenuated motor deficits
same,motor deficits (beam walking score) versus vehicle,"[1]; peptide 4 μg/kg/day i.p. 10 days, p<0.01, FIG. 6",attenuated motor deficits
same,motor deficits (beam walking score) versus control group,"[1]; Experiment II: pyridoxine 1200 mg/kg/day 4 days, peptide 4 μg/kg/day 4 days, day 5, p<0.001, FIG. 7",highly significantly attenuation of motor deficits
same,tolerability,"[1]; rats, 4 μg/kg/day",well tolerated
same,longest survival of treated mice,"[2]; Study 1, 40 μg/kg 1/day i.p., vehicle all dead by day 143, FIG. 8A",up to 156 days
same,day at which treated mice began dying,"[2]; Study 1, 40 μg/kg 1/day i.p., vehicle day 120, FIG. 8A, p<0.01",131 days
same,longest survival of treated mice,"[2]; Study 2, 0.4 μg/kg 1/day i.p., vehicle all dead at day 154, FIG. 8B",up to 189 days
same,day at which treated mice began to die,"[2]; Study 2, 0.4 μg/kg 1/day i.p., vehicle day 120, FIG. 8B",125 days
same,lifetime of mice suffering from the ALS-like disorder,"[2]; two studies, 40 μg/kg or 0.4 μg/kg 1/day i.p. from disease onset, FIGS. 8A and 8B",significant extension of lifetime
AcNH-RRAAPGRAGG^11-NH2 (Ac-RRAAPGRAGG-NH2) [SEQ ID NO: 7],neuroprotection in in vitro model of neural toxicity induced by 3-NP,cerebellar microexplants; 3-NP,neuroprotective
H-GR[dR]AAPGRAGG-NH2 [SEQ ID NO: 8],neuroprotection in in vitro model of neural toxicity induced by 3-NP,cerebellar microexplants; 3-NP,neuroprotective
"NH2-G^1RRAAPGRAGG^11-NH2 (H-GRRAAPGRAGG-NH2; listed as Homo sapiens) [SEQ ID NO:1, un-substituted comparator, reference compound]",decrease of neurotoxic effects of 3-NP (cells having neurites),"cerebellar microexplants; peptide at 10 fM or 1 pM, 0.5 mM 3-NP, p<0.001, n=4, FIG. 1",significantly decreased the neurotoxic effects of 3-NP
same,"neuroprotection after exposure to 3-NP, larger set of data",cerebellar microexplants,protect neurons from dying
same,stability in storage (retention of neuroprotective activity),cerebellar explants,loses activity over the 9-week period
same,neuroprotective effect against 3-NP after storage at −4° C.,cerebellar explants,little decrease in neurotoxic effect of 3-NP
same,neuroprotective effect against 3-NP after storage at −20° C.,cerebellar explants,neuroprotective effects at all concentrations tested
NH2-G^1RRAAPGRANG^11-NH2 (H-GRRAAPGRANG-NH2) [SEQ ID NO: 6],neuroprotection in in vitro model of neural toxicity induced by 3-NP,cerebellar microexplants; 3-NP,neuroprotective
NH2—REGRRDAPGRAGG-NH2 (H-REGRRDAPGRAGG-NH2) [SEQ ID NO: 12],therapeutic effect on EAE clinical score (severity of motoric impairment),[3],significant therapeutic effect
